The record followed here is ChEMBL document CHEMBL1155491, “Acylurea connected straight chain hydroxamates as novel histone deacetylase inhibitors: Synthesis, SAR, and in vivo antitumor activity” (Bioorg Med Chem Lett, 2010).

One data set has as its target T1, Histone deacetylase 8 (Homo sapiens, UniProt Q9BY41).
T1 sequence (Q9BY41 whole entry): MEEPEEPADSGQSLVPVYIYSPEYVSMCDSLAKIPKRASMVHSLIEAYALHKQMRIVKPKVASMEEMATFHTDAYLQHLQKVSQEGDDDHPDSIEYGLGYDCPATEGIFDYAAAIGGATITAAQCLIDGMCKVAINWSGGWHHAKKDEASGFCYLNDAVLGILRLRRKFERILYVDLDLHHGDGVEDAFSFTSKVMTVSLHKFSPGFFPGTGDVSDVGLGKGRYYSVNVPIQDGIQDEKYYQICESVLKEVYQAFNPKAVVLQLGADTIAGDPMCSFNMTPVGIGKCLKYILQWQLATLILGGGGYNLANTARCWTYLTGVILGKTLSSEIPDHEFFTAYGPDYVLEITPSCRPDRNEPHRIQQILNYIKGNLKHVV
Nature of the data set: Inhibition of HDAC8.

Another data set concerns the target Histone deacetylase 3 (Homo sapiens, UniProt O15379). As to the kind of experiment: Inhibition of HDAC3.
In data set [1] the target is T2, Polyamine deacetylase HDAC10 (Homo sapiens, UniProt Q969S8).
T2 sequence (Q969S8 whole entry): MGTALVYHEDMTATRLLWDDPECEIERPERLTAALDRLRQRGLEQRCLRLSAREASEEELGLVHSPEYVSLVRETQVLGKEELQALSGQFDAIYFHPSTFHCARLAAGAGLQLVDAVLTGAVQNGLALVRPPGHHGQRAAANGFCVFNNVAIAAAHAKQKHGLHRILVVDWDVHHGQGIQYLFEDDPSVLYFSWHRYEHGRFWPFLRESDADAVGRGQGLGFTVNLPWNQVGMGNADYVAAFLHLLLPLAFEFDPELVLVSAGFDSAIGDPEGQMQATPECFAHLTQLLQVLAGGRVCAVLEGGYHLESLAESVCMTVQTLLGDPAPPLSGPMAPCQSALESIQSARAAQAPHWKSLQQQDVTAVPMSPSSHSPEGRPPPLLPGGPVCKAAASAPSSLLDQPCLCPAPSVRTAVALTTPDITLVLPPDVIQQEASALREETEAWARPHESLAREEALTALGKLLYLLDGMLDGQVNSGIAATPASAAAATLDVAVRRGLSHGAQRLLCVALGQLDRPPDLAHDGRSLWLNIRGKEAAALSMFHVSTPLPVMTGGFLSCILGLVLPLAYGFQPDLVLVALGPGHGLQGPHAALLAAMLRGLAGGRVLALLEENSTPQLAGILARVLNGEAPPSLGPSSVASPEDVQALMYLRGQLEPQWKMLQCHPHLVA
Nature of the data set: Inhibition of HDAC10.

In a further data set the test system is A2780. As to the kind of experiment: Antiproliferative activity against human A2780 cells. It is filed as functional, cell-based.
Data set [2] is described as follows: Volume of distribution at steady state in mouse at 10 mg/kg, iv. The format is ADME, organism-based. Details: dose 10 mg/kg, route intravenous. The note with it: in vivo, read-out: Vdss.
Another data set deals with HCT-116. Nature of the data set: Antitumor activity against human HCT116 cells xenografted in BALB/c mouse at 100 mg/kg, po after 21 days. It is filed as functional. As to conditions: HCT-116, 504 h, read-out: TGI. For orientation: Xenograft models place foreign cells or tissue in a host animal.
The nature of data set [3]: Oral bioavailability in mouse at 50 mg/kg, po. The note with it: in vivo.

As usually defined, the IC50 is the concentration that gives 50% inhibition. Lower therefore signals higher potency. By Ki is commonly meant the equilibrium dissociation constant of an inhibitor or competing ligand from its target. Broadly, the bioavailability is the share of a dose that reaches the circulation, judged against a reference dose that is usually intravenous. High values mean good availability, low ones poor availability.

Sequence of Histone deacetylase 3 (O15379 whole entry): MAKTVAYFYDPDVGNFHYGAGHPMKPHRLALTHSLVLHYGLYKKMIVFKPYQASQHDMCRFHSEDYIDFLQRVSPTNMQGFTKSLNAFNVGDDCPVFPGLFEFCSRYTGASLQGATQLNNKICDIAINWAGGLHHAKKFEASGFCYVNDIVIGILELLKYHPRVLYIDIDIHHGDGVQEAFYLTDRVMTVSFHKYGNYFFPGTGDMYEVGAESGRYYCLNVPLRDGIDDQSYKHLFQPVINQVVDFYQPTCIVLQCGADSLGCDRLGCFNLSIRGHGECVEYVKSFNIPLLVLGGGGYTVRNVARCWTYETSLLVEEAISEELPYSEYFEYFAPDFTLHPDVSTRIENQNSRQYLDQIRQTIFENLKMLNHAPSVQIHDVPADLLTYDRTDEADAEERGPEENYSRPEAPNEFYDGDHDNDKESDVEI

On to `O=C(CCCCCNC(=O)NC(=O)c1ccccc1)NO`, for which the IC50 at Histone deacetylase 8 stood at 0.608 µM; with A2780 it was 0.7 µM. Besides, the Ki on Histone deacetylase 8 was determined as 0.252 µM; on Histone deacetylase 3, 0.023 µM; in data set [1], 0.04 µM. Besides, the Vd in data set [2] was determined as 2.16 L/kg. The inhibition in vivo at 100 mg/kg with HCT-116 turned out to be 80%. Also, in data set [3], the bioavailability is 62%.
